These results are taken from ChEMBL document CHEMBL1201862, “PubChem BioAssay data set” (2004).

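Briefly, cells in 96-well plates were exposed to five compound concentrations for 48 h, and endpoints were estimated by linear interpolation. GI50 is the concentration that inhibits growth by half.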 Active and inactive are the calls of the source. No stated cut-off is given here; in the data, active = GI50 up to about 1.1 µM and inactive = higher. Bounds are passed on as bounds.

The term GI50 denotes the concentration that inhibits growth by half.

Test systems include M19-MEL; XF498; KM-20L2; SNB-78; DMS-273; HOP-18; DLD-1; DMS-114; RXF 631.
Test in all cases: DTP human tumour cell line panel, 48 h

`CCOC(=O)C(c1ccsc1)P(=O)(OCC)OCC` (stereo not drawn): the GI50 in the assay with M19-MEL was 11.2 µM (inactive); in the assay with XF498 it was 20.9 µM (inactive); with KM-20L2, 14.5 µM (inactive); in the assay with SNB-78, 12.6 µM (inactive); in the assay with DMS-273 it was 13.2 µM (inactive); with HOP-18 it was 28.3 µM (inactive). Also, the GI50 in the assay with DLD-1 was 12.8 µM (inactive); with DMS-114, 13.8 µM (inactive).

As for `O/N=C1\CCCCC1C(NO)c1ccccc1` (stereo not drawn), the GI50 in the assay on M19-MEL, in the assay on KM-20L2, with SNB-78, with DMS-273, in the assay with HOP-18 and in the assay with DLD-1 was > 100 µM (inactive) each time. In addition, the GI50 in the assay on DMS-114 was 67 µM (inactive); in the assay with RXF 631 it was > 100 µM (inactive).

As for `O=C(Cc1nc2ccccc2o1)C(=O)Nc1cccc(Cl)c1`, the GI50 in the assay with M19-MEL, in the assay with XF498, with KM-20L2, with SNB-78, in the assay on HOP-18 and in the assay on DLD-1 was > 100 µM (inactive) each time. In addition, the GI50 with DMS-114 was > 100 µM (inactive).

Turning to `Cc1ccccc1NC(=O)c1cc(-c2ccc([N+](=O)[O-])cc2)nc(S)n1`, the GI50 in the assay on KM-20L2, with SNB-78, in the assay with DMS-273, in the assay with HOP-18, in the assay with DLD-1 and in the assay on DMS-114 was > 100 µM (inactive) each time. Further, the GI50 with RXF 631 was > 100 µM (inactive).

Consider `COC(=O)/C(=N\NC(N)=O)C(C#N)c1ccccc1` (stereo not drawn), for which the GI50 with M19-MEL is > 100 µM (inactive); with XF498, 75.5 µM (inactive); in the assay on KM-20L2, > 100 µM (inactive); in the assay with SNB-78 it was > 100 µM (inactive); in the assay with HOP-18, > 100 µM (inactive); in the assay with DLD-1, > 100 µM (inactive). Moreover, in the assay with DMS-114, the GI50 was > 100 µM (inactive).

As to `CC(Oc1ccc(OCC2CCCCC2)cc1)C(N)=O` (stereo not drawn), the GI50 in the assay with M19-MEL, in the assay on XF498, in the assay on SNB-78, in the assay on DMS-273, with HOP-18 and in the assay with DLD-1 was > 100 µM (inactive) throughout. Also, the GI50 with DMS-114 was 73.6 µM (inactive).

Turning to `CC1(C)CC(=O)C(/C(=N/NC(=S)NN)C(=O)Nc2nc3ccc([N+](=O)[O-])cc3s2)C(=O)C1`, the GI50 in the assay with M19-MEL was > 100 µM (inactive); in the assay on XF498, > 100 µM (inactive); with KM-20L2, > 100 µM (inactive); with SNB-78, > 100 µM (inactive); in the assay on HOP-18, 76.7 µM (inactive); in the assay with DLD-1, > 100 µM (inactive). Also, in the assay with DMS-114, the GI50 was > 100 µM (inactive).

As to `Brc1ccc2c(C3CN[C@@H](c4c[nH]c5cc(Br)ccc45)CN3)c[nH]c2c1` (stereo partly drawn), the GI50 was 6.78 µM (inactive) in the assay on M19-MEL; 6.84 µM (inactive) in the assay with XF498; 1.98 µM (inactive) in the assay with KM-20L2; 10.4 µM (inactive) in the assay on SNB-78; 2.26 µM (inactive) in the assay with DMS-273; 11.9 µM (inactive) with HOP-18. In addition, the values for the GI50 with DLD-1, with DMS-114 and with RXF 631 were 3.03 µM (inactive), 1.95 µM (inactive) and 2.67 µM (inactive), respectively.

Regarding `Clc1ccc(-c2nnc3c4nnc(-c5ccc(Cl)cc5Cl)n4c4ccccc4n23)c(Cl)c1`, the GI50 was > 100 µM (inactive) in the assay on M19-MEL; > 100 µM (inactive) in the assay with XF498; > 100 µM (inactive) in the assay with KM-20L2; 34.4 µM (inactive) in the assay on SNB-78; > 100 µM (inactive) in the assay with DMS-273; > 100 µM (inactive) with DLD-1. The GI50 with DMS-114 is > 100 µM (inactive).

For the compound `CCCCCCCCCCCC[C@@H](O)[C@H]1CC[C@H]([C@H](O)CCCC[C@H](O)CCCCC[C@@H](O)CC2=C[C@H](C)OC2=O)O1`, the GI50 was 1.69 µM (inactive) with M19-MEL; 2.19 µM (inactive) in the assay on KM-20L2; 3.95 µM (inactive) in the assay on SNB-78; 1.57 µM (inactive) in the assay with DMS-273; 3.23 µM (inactive) in the assay on HOP-18; 2.67 µM (inactive) in the assay with DLD-1. For the same compound, the GI50 in the assay on DMS-114 was < 0.01 µM (active).

Take `c1ccc(CSc2nc3ccccc3nc2-c2cccs2)cc1`: the GI50 with M19-MEL, in the assay with XF498, in the assay with SNB-78, in the assay on DMS-273, with HOP-18 and in the assay on DLD-1 was > 100 µM (inactive) in each case. The GI50 with DMS-114 is > 100 µM (inactive).

`O=C1CCC(=O)C12CCc1ccccc12`: the GI50 in the assay with M19-MEL, with XF498, with KM-20L2, in the assay on DMS-273, in the assay with HOP-18 and with DLD-1 was > 100 µM (inactive) throughout. In addition, the GI50 in the assay with DMS-114 and with RXF 631 was > 100 µM (inactive) throughout.

In the case of `CC1=C(C(=O)Nc2cc(F)c(F)cc2F)C(c2ccc([N+](=O)[O-])cc2)C(C(=O)Nc2cc(F)c(F)cc2F)=C(C)N1`, the GI50 in the assay with M19-MEL is 57.7 µM (inactive); in the assay with KM-20L2, 37.9 µM (inactive); in the assay on SNB-78, 26.1 µM (inactive); in the assay on DLD-1, 30.5 µM (inactive); in the assay with DMS-114 it was 15.3 µM (inactive).

`CCOC(=O)C(Cc1c(C=O)[nH]c2ccccc12)(NC(=O)c1ccccc1)C(=O)OCC`: the GI50 is 16 µM (inactive) in the assay with M19-MEL; 16.4 µM (inactive) with XF498; > 10 µM (inactive) with HOP-18; 7.93 µM (inactive) in the assay on DLD-1; 19.8 µM (inactive) with DMS-114.

As to `COc1ccc(/C=C2\N=C(c3ccccc3)OC2=O)c(OCc2ccccc2)c1`, the GI50 was 38.3 µM (inactive) in the assay with M19-MEL; > 100 µM (inactive) in the assay on KM-20L2; 32.3 µM (inactive) in the assay on DMS-273; > 100 µM (inactive) in the assay with HOP-18; 17.7 µM (inactive) in the assay on DLD-1; 31.1 µM (inactive) in the assay with DMS-114.

In the case of `CC(C)=CCC/C(C)=C/Cc1c(O)c(C)cc2c1[nH]c1cc(O)ccc12`, the GI50 in the assay with M19-MEL, in the assay on KM-20L2, in the assay with SNB-78, in the assay on DMS-273, in the assay on DLD-1 and in the assay on DMS-114 was > 25 µM (inactive) each time.

Regarding `O=C(C/C(=N\NC(=O)C[n+]1ccccc1)C(=O)Nc1nc2ccc([N+](=O)[O-])cc2s1)CC(c1ccccc1)c1c(O)c2ccccc2oc1=O` (stereo not drawn), the GI50 in the assay on M19-MEL, with KM-20L2, in the assay on DLD-1 and in the assay on DMS-114 was > 100 µM (inactive) in each case.

On to `COC(=O)C1=Cc2cc3c(cc2[C@H](c2ccc4c(c2)OCO4)C1C(=O)OC)OCO3` (stereo partly drawn), for which the GI50 in the assay with M19-MEL, with XF498, in the assay with KM-20L2, with SNB-78, with DMS-273 and in the assay on HOP-18 was > 100 µM (inactive) each time. In addition, the GI50 was 54.5 µM (inactive) in the assay with DLD-1 and > 100 µM (inactive) with DMS-114.

Consider `Cc1c2ccccc2cc2ccc3oc([N+](=O)[O-])cc3c12`, for which the GI50 in the assay on M19-MEL is > 100 µM (inactive); with XF498, > 100 µM (inactive); in the assay on KM-20L2 it was > 100 µM (inactive); in the assay on SNB-78 it was > 100 µM (inactive); with DMS-273 it was > 100 µM (inactive); in the assay on HOP-18, 2 µM (inactive). The GI50 in the assay on DLD-1 and in the assay with DMS-114 was > 100 µM (inactive) throughout.

Regarding `Cc1c[nH]c2c(O)cc3c(c12)[C@H](CCl)CN3C(=O)c1cc2cc(NC(=O)Nc3ccc4[nH]c(C(=O)N5C[C@@H](CCl)c6c5cc(O)c5[nH]cc(C)c65)cc4c3)ccc2[nH]1` [BIZELESIN], the GI50 in the assay with M19-MEL, in the assay with XF498, with KM-20L2, in the assay with SNB-78, in the assay on HOP-18 and in the assay with DMS-114 was < 0.001 µM (active) in each case. In the assay on RXF 631, the GI50 is < 0.001 µM (active).
